# Like-named read-outs stand apart in the source and are kept apart here. No end group written: not given here.
# What was measured:
# [1] = target: T1, HLA A02.01 (Homo sapiens, UniProt P04439, D140Y/D185E/D98H/E176V/E277Q/G131W/G231S/I119V/I121R/I166T/I218V/L300P/L318F/N151K/N90K/P208A/P217A/Q86G/Q94H/R138H/R169H/T345S); assay: MHC-I peptide binding affinity assay (displacement of radiolabeled reference peptide)
# [2] = target: T2, HLA A01.01 (Homo sapiens, UniProt P04439, A114D/A174V/A182V/D101N/D185E/E176A/E190D/L180R/Q94H/R68K/S129P/T187R/V100A/V91M/W191G); assay: as above
# Excerpt: (§1) 31:813 (1994). […] 149:1896 (1992)).
# [3] = target: HLA A24.02; assay: as above; set-up: species or system human; details: Table 11, EGFR T790M peptides; HLA allele A24.02
# Excerpt: as §1
# [4] = target: T1, HLA A02.01; assay: MHC-I peptide binding stability assay (pMHC-I dissociation half-life); details: HLA allele A02.01
# Method: (§2) Briefly, synthetic genes encoding biotinylated MHC-I heavy and light chains are expressed in E. coli and purified from inclusion bodies using standard methods. The light chain (β2m) is radio-labeled with iodine (1251), and combined with the purified MHC-I heavy chain and peptide of interest at 18° C. to initiate pMHC-I complex formation. These reactions are carried out in streptavidin coated microplates to bind the biotinylated MHC-I heavy chains to the surface and allow measurement of radiolabeled light chain to monitor complex formation. Dissociation is initiated by addition of higher concentrations of unlabeled light-chain and incubation at 37° C. Stability is defined as the length of time in hours it takes for half of the complexes to dissociate, as measured by scintillation counts.
# [5] = target: T2, HLA A01.01; assay: as above; details: HLA allele A01.01
# Method: as §2
# [6] = target: T3, HLA A03.01 (Homo sapiens, UniProt P04439); assay: MHC-I peptide binding affinity assay (displacement of radiolabeled reference peptide); set-up: made in house; host or cells: E. coli; details: Table 10, BTK C481S peptides; HLA allele A03.01
# Excerpt: as §1
# [7] = target: T3, HLA A03.01; assay: MHC-I peptide binding stability assay (pMHC-I dissociation half-life); set-up: made in house; host or cells: E. coli; details: Table 10, BTK C481S peptides; HLA allele A03.01
# Method: as §2
# [8] = target: HLA B07.02 (Homo sapiens, UniProt P01889); assay: MHC-I peptide binding affinity assay (displacement of radiolabeled reference peptide); details: Table 11, EGFR T790M peptides; HLA allele B07.02
# Excerpt: as §1
# [9] = target: HLA B08.02; assay: as above; set-up: species or system human; details: Table 11, EGFR T790M peptides; HLA allele B08.02
# Excerpt: as §1
# [10] = test system: HLA A24.02; assay: MHC-I peptide binding stability assay (pMHC-I dissociation half-life); set-up: species or system human; details: Table 11, EGFR T790M peptides; HLA allele A24.02
# Method: as §2
# [11] = target: HLA B08.01 (Homo sapiens, UniProt P01889, A93T/A95T/D138N/E176V/E187T/K202T/Q94N/R180D/S35A/V36M/Y33D/Y91F); details: read-out: Affinity
# Excerpt: As used herein, the term “affinity” refers to a measure of the strength of binding between two members of a binding pair, for example, an HLA-binding peptide and a class I or II HLA. K D is the dissociation constant and has units of molarity. The affinity constant is the inverse of the dissociation constant. An affinity constant is sometimes used as a generic term to describe this chemical entity. It is a direct measure of the energy of binding. Affinity may be determined experimentally, for example by surface plasmon resonance (SPR) using commercially available Biacore SPR units. […] Likewise, ln(IC50) refers to the natural log of the IC50. Koff refers to the off-rate constant, for example, for dissociation of an HLA-binding peptide and a class I or II HLA. […] Given the conditions in which the assays are run (i.e., limiting HLA protein and labeled reference peptide concentrations), these values approximate KD values. […] Alternatively, binding can be expressed relative to binding by a reference standard peptide. For example, can be based on its IC50, relative to the IC50 of a reference standard peptide.
# In brief, MHCI complexes were prepared and bound to radiolabeled reference peptides. Peptides were incubated at varying concentrations with these complexes for 2 days, and the amount of remaining radiolabeled peptide bound to MHCI was measured using size exclusion gel-filtration.
# [12] = test system: T2 or HLA-A0201 transfected C1Rs pulsed with peptide; assay: IFNγ ELISpot assay; format: cell-based, human; details: number of donors responding out of 2; HLA-A02:01 peptides
# Method: In some embodiments the immunogenicity is measured by measuring a protein or peptide expressed by the T cell, using ELISpot assay. Peptide-specific T cells are functionally enumerated using the ELISpot assay (BD Biosciences), which measures the release of IFNγ from T cells on a single cell basis. Target cells (T2 or HLA-A0201 transfected C1Rs) were pulsed with 10 μM peptide for one hour at 37 degrees C., and washed three times. 1×10^5 peptide-pulsed targets are co-cultured in the ELISPOT plate wells with varying concentrations of T cells (5×10^2 to 2×10^3) taken from the immunogenicity culture. Plates are developed according to the manufacturer's protocol, and analyzed on an ELISPOT reader (Cellular Technology Ltd.) with accompanying software. Spots corresponding to the number of IFN gamma-producing T cells are reported as the absolute number of spots per number of T cells plated. T cells expanded on modified peptides are tested not only for their ability to recognize targets pulsed with the modified peptide, but also for their ability to recognize targets pulsed with the parent peptide. Some exemplary data are shown below in Table 13.
# [13] = test system: MHC protein encoded by HLA-C03:04 allele; assay: Identification of MHC-bound epitope by mass spectrometry; format: cell-based, human; details: MHC encoded by HLA-C03:04 allele
# Excerpt: (§3) In some embodiments, antigenic peptides comprising an epitope may be identified by mass spectrometry to be bound to an MHC encoded by an HLA.
# (§4) Provided herein are KRAS epitopes each of which specifically can bind to the MHC protein encoded by the alleles indicated in right hand column in the same row of Table 1, that have been identified to bind to the MHC protein by mass spectrometry, and that each epitope is presented to T cells by association with the MHC protein in the respective right hand column for each row in Table 1.
# (§5) To assess whether antigens could be processed and presented from the larger polypeptide context, peptides eluted from HLA molecules isolated from cells expressing the genes of interest were analyzed by tandem mass spectrometry (MS/MS).
# [14] = test system: MHC protein encoded by HLA-C03:03 allele; assay: as above; format: cell-based, human; details: MHC encoded by HLA-C03:03 allele
# Excerpt: as §3, §4, §5
# [15] = target: T3, HLA A03.01; assay: HLA-peptide elution and targeted MS/MS (PRM) presentation assay; format: cell-based; set-up: expressed in transfected cells; SW620 cells (lentiviral transduction)
# Method: as §5
# For analysis of presentation of RAS neoantigens, cell lines were utilized that have RAS mutations naturally or were lentivirally transduced to express the mutated RAS gene. HLA molecules were either isolated based on the natural expression of the cell lines or the cell lines were lentivirally transduced or transiently transfected to express the HLA of interest. […] Greater than 50 million cells expressing peptides encoded by a mutant RAS peptide were cultured and peptides were eluted from HLA-peptide complexes using an acid wash. Eluted peptides were then analyzed by targeted MS/MS with parallel reaction monitoring (PRM). […] Endogenous peptide spectrum is shown in the top panel and the corresponding stable heavy-isotopically labeled spectrum is shown in the bottom panel.
# [16] = Table 11, EGFR T790M peptides, HLA allele A02.01, read-out: Affinity
# [17] = Table 10, BTK C481S peptides, HLA allele A01.01, read-out: Affinity
compound,measurement,setting,value
CC[C@H](C)[C@H](NC(=O)[C@H](CC(C)C)NC(=O)[C@H](CCC(N)=O)NC(=O)[C@@H](NC(=O)[C@@H](NC(=O)[C@H](CO)NC(=O)[C@@H](NC(=O)[C@H](CC(C)C)NC(=O)[C@@H](N)CS)[C@@H](C)O)[C@@H](C)O)C(C)C)C(=O)N[C@@H](CCSC)C(=O)O,IC50,[1],0.537 µM
same,IC50,[2],8.28 µM
CC[C@H](C)[C@H](N)C(=O)N[C@@H](CCSC)C(=O)N[C@@H](CCC(N)=O)C(=O)N[C@@H](CC(C)C)C(=O)N[C@@H](CCSC)C(=O)N1CCC[C@H]1C(=O)N[C@@H](Cc1ccccc1)C(=O)NCC(=O)N[C@@H](CS)C(=O)N[C@@H](CC(C)C)C(=O)O,IC50,[1]; [16],0.653 µM
same,IC50,[3],14.1 µM
same,Stability (half-life (hr.)),"[4]; Table 11, EGFR T790M peptides",30.94 min
CC[C@H](C)[C@H](NC(=O)[C@@H](N)CC(C)C)C(=O)N[C@@H](CCSC)C(=O)N[C@@H](CCC(N)=O)C(=O)N[C@@H](CC(C)C)C(=O)N[C@@H](CCSC)C(=O)N1CCC[C@H]1C(=O)N[C@@H](Cc1ccccc1)C(=O)NCC(=O)N[C@@H](CS)C(=O)O,IC50,[1]; [16],0.132 µM
same,Stability (half-life (hr.)),"[4]; Table 11, EGFR T790M peptides",22.88 min
CSCC[C@H](N)C(=O)N[C@@H](C)C(=O)N[C@@H](CC(N)=O)C(=O)NCC(=O)N[C@@H](CO)C(=O)N[C@@H](CC(C)C)C(=O)N[C@@H](CC(C)C)C(=O)N[C@@H](CC(N)=O)C(=O)N[C@@H](Cc1ccc(O)cc1)C(=O)O,IC50,[2]; [17],0.439 µM
same,Stability (half-life (hr.)),"[5]; Table 10, BTK C481S peptides",12.98 min
same,IC50,[6],0.0356 µM
same,Stability (half-life (hr.)),[7],14.3 min
CSCC[C@H](NC(=O)[C@H](CC(C)C)NC(=O)[C@H](CCC(N)=O)NC(=O)[C@@H](N)CCSC)C(=O)N1CCC[C@H]1C(=O)N[C@@H](Cc1ccccc1)C(=O)NCC(=O)N[C@@H](CS)C(=O)N[C@@H](CC(C)C)C(=O)O,IC50,[1]; [16],0.116 µM
same,IC50,[8],1.59 µM
same,Stability (half-life (hr.)),"[4]; Table 11, EGFR T790M peptides",22.1 min
CSCC[C@H](NC(=O)[C@H](CC(C)C)NC(=O)[C@H](CCC(N)=O)NC(=O)[C@@H](N)CCSC)C(=O)N1CCC[C@H]1C(=O)N[C@@H](Cc1ccccc1)C(=O)NCC(=O)N[C@@H](CS)C(=O)N[C@@H](CC(C)C)C(=O)N[C@@H](CC(C)C)C(=O)O,IC50,[1]; [16],0.0163 µM
same,IC50,[3],18.9 µM
same,Stability (half-life (hr.)),"[4]; Table 11, EGFR T790M peptides",22.87 min
CC[C@H](C)[C@H](NC(=O)[C@H](CC(C)C)NC(=O)[C@@H](N)CCC(N)=O)C(=O)N[C@@H](CCSC)C(=O)N[C@@H](CCC(N)=O)C(=O)N[C@@H](CC(C)C)C(=O)N[C@@H](CCSC)C(=O)N1CCC[C@H]1C(=O)N[C@@H](Cc1ccccc1)C(=O)O,IC50,[1]; [16],0.193 µM
same,IC50,[3],2.03 µM
same,IC50,[9],5.59 µM
same,Stability (half-life (hr.)),"[4]; Table 11, EGFR T790M peptides",20.44 min
same,Stability (half-life (hr.)),[10],22.12 min
CSCC[C@H](NC(=O)[C@H](CCC(=O)O)NC(=O)[C@H](CCCNC(=N)N)NC(=O)[C@H](CC(C)C)NC(=O)[C@H](Cc1ccc(O)cc1)NC(=O)[C@H](CC(N)=O)NC(=O)[C@H](CC(C)C)NC(=O)[C@H](CC(C)C)NC(=O)[C@@H](N)CO)C(=O)O,Stability (half-life (hr.)),"[4]; Table 10, BTK C481S peptides",182.6 min
same,IC50,[11],0.96 µM
CC[C@H](C)[C@H](NC(=O)[C@H](CC(C)C)NC(=O)[C@H](CCC(N)=O)NC(=O)[C@@H](N)C(C)C)C(=O)N[C@@H](CCSC)C(=O)N[C@@H](CCC(N)=O)C(=O)N[C@@H](CC(C)C)C(=O)N[C@@H](CCSC)C(=O)N1CCC[C@H]1C(=O)N[C@@H](Cc1ccccc1)C(=O)O,IC50,[1]; [16],4.94 µM
same,IC50,[3],4.1 µM
FLGYLILGV,Immunogenicity (# donors/2),[12],1 # donors/2
FLTPKKLQCV,Immunogenicity (# donors/2),[12],1 # donors/2
FQNSYTIGL,Immunogenicity (# donors/2),[12],2 # donors/2
FQYPEFSIEL,Immunogenicity (# donors/2),[12],1 # donors/2
GACGVGKSA,"binding to MHC protein, identified by mass spectrometry",[13],specifically binds
GAVGVGKSA,"binding to MHC protein, identified by mass spectrometry",[14],specifically binds
ILNDTGCHYV,Immunogenicity (# donors/2),[12],1 # donors/2
IMQLMPFGC,IC50,[1]; [16],1.21 µM
same,Stability (half-life (hr.)),"[4]; Table 11, EGFR T790M peptides",22.21 min
LIMQLMPFG,IC50,[1]; [16],3.34 µM
LLANDLMLI,Immunogenicity (# donors/2),[12],2 # donors/2
LLANGRMPTV,Immunogenicity (# donors/2),[12],2 # donors/2
LTSTVQLIM,IC50,"[2]; Table 11, EGFR T790M peptides, HLA allele A01.01, read-out: Affinity",2.89 µM
same,Stability (half-life (hr.)),"[5]; Table 11, EGFR T790M peptides",6.222 min
QLIMQLMPFG,IC50,[1]; [16],5.21 µM
RLIWLVKMV,Immunogenicity (# donors/2),[12],1 # donors/2
STVQLIMQL,IC50,[1],7.26 µM
VLDCCISLL,Immunogenicity (# donors/2),[12],1 # donors/2
VVVGAVGVGK,HLA-eluted peptide detected by mass spectrometry,[15]; 293T cells lentivirally transduced with RAS G12V mutation and HLA-A*03:01 gene,detected
same,HLA-eluted peptide detected by mass spectrometry,"[15]; SW620 cells naturally expressing RAS G12V, lentivirally transduced with HLA-A*03:01 gene",detected
YMANGSLLNY,IC50,[2]; [17],0.0132 µM
same,Stability (half-life (hr.)),"[5]; Table 10, BTK C481S peptides",51.97 min
same,IC50,[6],0.0959 µM
same,Stability (half-life (hr.)),[7],16.75 min

# — patent publication US20230398218A1, “RAS NEOANTIGENS AND USES THEREOF” (priority 2020, published 2023)
